{"source": "patent US20200246364A1", "about": "“MEDICAL APPLICATION OF COMPOSITION OF FRUCTOSE-1,6-BISPHOSPHATE AND BLOOD CONCENTRATION STABILIZER THEREOF” (ZHEJIANG UNIVERSITY, priority 2017, published 2020)", "key": {"glioma cells U87-MG": {"system": "glioma cells U87-MG", "assay": "Lactic acid released by glioma cells (glycolysis)", "format": "cell-based, human", "conditions": "1.6 mM", "procedure": "(§1) Human glioma cell strains (U87-MG, KNS-89, SHG-44) were respectively incubated in culture media containing 0.8 mM of trisodium fructose-1,6-bisphosphate salt, and 1.6 mM of trisodium fructose-1,6-bisphosphate salt, and 1.6 mM of 2-deoxyglucose, and the contents of lactic acid as the final glycolytic product released by the cells in the culture media were measured after 12 h, 24 h, 36 h, and 48 h. […] Human glioma cell strain (U87-MG) was incubated in the culture medium containing 0.8 mM of trisodium fructose-1,6-bisphosphate salt for 1 h, 3 h, 6 h, 12 h, 24 h, 36 h, and 48 h, and level changes of key metabolic enzymes in the glycolytic pathway of cells were measured by Western Blot at the respective time points."}, "glioma cells KNS-89": {"system": "glioma cells KNS-89", "assay": "Lactic acid released by glioma cells (glycolysis)", "format": "cell-based, human", "conditions": "KNS-89, 1.6 mM", "procedure": "as §1"}, "glioma cells SHG-44": {"system": "glioma cells SHG-44", "assay": "Lactic acid released by glioma cells (glycolysis)", "format": "cell-based, human", "conditions": "SHG-44, 1.6 mM", "procedure": "as §1"}, "[1]": {"system": "fructose-1,6-bisphosphatase 1", "assay": "Kidney protein level of fructose-1,6-bisphosphatase 1 after 14 days treatment (Western Blot)", "format": "in vivo", "conditions": "SD rats, 14 days i.g.; FBP 500 mg/kg, metformin 150 mg/kg, sitagliptin 20 mg/kg; vs control group", "method": "180-200 g SD rats were divided into 4 groups: a saline control group, a trisodium fructose-1,6-bisphosphate hydrate group (500 mg/kg, i.g), a metformin group (150 mg/kg, i.g) or a sitagliptin group (20 mg/kg, i.g), and a trisodium fructose-1,6-bisphosphate and metformin or sitagliptin combination group, 5 rats in each group. All groups were intragastrically treated, metformin or sitagliptin was administrated 0.5 h before fructose-1,6-bisphosphate, and this was repeated in 14 consecutive days. At 3 hours after the last intragastric treatment with fructose-1,6-bisphosphate, rat blood was collected to detect the blood concentration of FBP, kidney tissue was taken and the protein level of fructose-1,6-bisphosphatase 1 was measured by Western Blot."}, "[2]": {"system": "mouse liver cancer cells H22", "assay": "Tumor growth of mouse liver cancer H22 model", "format": "in vivo, ICR mice", "conditions": "FBP 500 mg/kg, i.g., 7 days; for Tumor weight: three times per day; for inhibition of tumor growth (inhibition ratio): H22, metformin 150 mg/kg, sitagliptin 20 mg/kg", "method": "The treatment was performed three times per day, in which metformin or sitagliptin was administrated 0.5 h before trisodium fructose-1,6-bisphosphate. This is repeated for 7 days, and situations of the animals during the experiments were observed. The animals were sacrificed 24 hours after the last treatment, the tumor masses were taken out and weighed, and the average tumor weight in each group of animals was used as an efficacy index."}, "SW620": {"system": "SW620", "assay": "cells", "conditions": "Homo sapiens, SW-620, 72 h, read-out: cell viability (Con = 100)", "procedure": "(§2) Human intestinal cancer cell strains SW620 and HCT-8, which had been incubated for 24 hours, were respectively incubated in a medium containing 0.8 mM of trisodium fructose-1,6-bisphosphate, a medium containing 0.2 mM of metformin/100 μM of sitagliptin, and a medium containing 0.8 mM of trisodium fructose-1,6-bisphosphate and 0.2 mM of metformin/100 μM of sitagliptin for 72 h. A control group (Con) was not treated with the agent. Cell viability was determined by Sulforhodamine B (SRB) staining analysis method."}, "Bel-7402": {"system": "Bel-7402", "assay": "cells", "conditions": "Homo sapiens, Bel-7402, 72 h", "procedure": "(§3) Human liver cancer cell strains Bel-7402 and huh-7, which had been incubated for 24 hours, were respectively incubated in a medium containing 1.6 mM or 0.8 mM of trisodium fructose-1,6-bisphosphate, a medium containing 0.2 mM of metformin or 25 μM of sitagliptin, and a medium containing 0.8 mM of trisodium fructose-1,6-bisphosphate and 0.2 mM of metformin/25 μM of sitagliptin for 72 h. A control group (Con) was not treated with the agent. Cell viability was determined by Sulforhodamine B (SRB) staining analysis method."}, "HCT-8": {"system": "HCT-8", "assay": "Cell viability, Sulforhodamine B (SRB) staining", "format": "cell-based, human", "conditions": "HCT-8, 72 h, FBP 0.8 mM", "procedure": "as §2"}, "Huh-7": {"system": "Huh-7", "assay": "Cell viability, Sulforhodamine B (SRB) staining", "format": "cell-based, human", "conditions": "Huh-7, 72 h, FBP 0.8 mM", "procedure": "as §3"}, "[3]": {"assay": "Weight gain and fat accumulation caused by high-fat diet", "format": "in vivo, ICR mice", "conditions": "high-fat diet mice", "procedure": "40 ICR male mice (17-19 g/per mouse) were divided into 2 groups. […] The animals of the normal group (Naive) were still fed with the basic feed, and the model animals were equally divided into 4 groups and were further fed with the high-fat diet. In addition, according to the amount of water the mice had consumed, a certain dose of the agent was dissolved in drinking water. The animals in the model group (Model) were fed with the purified water, the animals in the fructose-1,6-bisphosphate group were fed with water containing 0.18% of 8-molecule hydrate of sodium fructose-1,6-bisphosphate (equivalent to FBP 300 mg/kg), the animals in the sitagliptin group were fed with water containing 0.012% of sitagliptin phosphate salt (equivalent to STG 20 mg/kg), and the animals in the combination group were fed with water containing FBP 500 mg/kg+STG 20 mg/kg. The treatment lasted continuously for 6 weeks, the body weight, food intake and water intake were measured per week, the body weight and body length (CM) were measured on the last day of the last week, and a Lee's INDEX (Lee's INDEX=body weight (g)^(1/3) * 1000/body length (cm)) was calculated to evaluate the state of animal obesity. Then, the animals were sacrificed by cervical vertebra dislocation and the mice were dissected, the epididymal fat pad was taken and weighed, and a fat coefficient was calculated to further investigate the degree of obesity of the mice."}, "melanoma B16 cell": {"system": "melanoma B16 cell", "assay": "Cell viability, Sulforhodamine B (SRB) staining", "conditions": "Mus musculus, B16, 72 h, read-out: cell viability inhibited", "procedure": "Mouse melanoma B16 cells, which had been incubated for 24 hours, were incubated in a medium containing 0.8 mM of trisodium fructose-1,6-bisphosphate, a medium containing 20 μM of sitagliptin, and a medium containing 0.8 mM of trisodium fructose-1,6-bisphosphate and 20 μM of sitagliptin for 72 h. A control group (Con) was not treated with the agent. Cell viability was determined by Sulforhodamine B (SRB) staining analysis method."}}, "data": [{"smiles": "O=CC[C@@H](O)[C@H](O)[C@H](O)CO", "note": "[2-DG, 2-deoxy-D-glucose]", "values": [{"measurement": "Relative levels of lactic acid (compared with the control group)", "setting": "glioma cells U87-MG; 12 h", "value": "0.48 ± 0.16"}, {"measurement": "Relative levels of lactic acid (compared with the control group)", "setting": "glioma cells U87-MG; 24 h", "value": "0.31 ± 0.07"}, {"measurement": "Relative levels of lactic acid (compared with the control group)", "setting": "glioma cells U87-MG; 36 h", "value": "0.65 ± 0.10"}, {"measurement": "Relative levels of lactic acid (compared with the control group)", "setting": "glioma cells KNS-89; 12 h", "value": "0.31 ± 0.09"}, {"measurement": "Relative levels of lactic acid (compared with the control group)", "setting": "glioma cells KNS-89; 24 h", "value": "0.27 ± 0.13"}, {"measurement": "Relative levels of lactic acid (compared with the control group)", "setting": "glioma cells KNS-89; 36 h", "value": "0.31 ± 0.02"}, {"measurement": "Relative levels of lactic acid (compared with the control group)", "setting": "glioma cells SHG-44; 12 h", "value": "0.76 ± 0.15"}, {"measurement": "Relative levels of lactic acid (compared with the control group)", "setting": "glioma cells SHG-44; 24 h", "value": "0.62 ± 0.13"}, {"measurement": "Relative levels of lactic acid (compared with the control group)", "setting": "glioma cells SHG-44; 36 h", "value": "0.57 ± 0.04"}]}, {"smiles": "CN(C)C(=N)N=C(N)N", "note": "[Met, metformin]", "values": [{"measurement": "protein level of fructose-1,6-bisphosphatase 1 in kidney tissue (Western Blot)", "setting": "[1]", "value": "not significantly changed"}, {"measurement": "Tumor weight", "setting": "[2]; H22, metformin experiment, Met 150 mg/kg, Con 1.66 ± 0.29", "value": "1.46 ± 0.23", "unit": "g"}, {"measurement": "inhibition of tumor growth (inhibition ratio)", "setting": "[2]", "value": "no significant difference"}, {"measurement": "viability at 200 µM", "setting": "SW620", "value": "95.9 ± 7.54", "unit": "%"}, {"measurement": "viability at 200 µM", "setting": "Bel-7402; read-out: cell viability (Con = 100)", "value": "91.7 ± 1.62", "unit": "%"}, {"measurement": "cytotoxicity at 200 µM", "setting": "Bel-7402; read-out: cell viability inhibited", "value": 5, "unit": "%"}]}, {"smiles": "N[C@@H](CC(=O)N1CCn2c(nnc2C(F)(F)F)C1)Cc1cc(F)c(F)cc1F", "note": "[STG, sitagliptin]", "values": [{"measurement": "protein level of fructose-1,6-bisphosphatase 1 in kidney tissue (Western Blot)", "setting": "[1]", "value": "not significantly changed"}, {"measurement": "cell viability inhibited", "setting": "HCT-8; sitagliptin 100 μM", "value": "did not affect"}, {"measurement": "viability at 100 µM", "setting": "HCT-8; Homo sapiens, STG 100 μM, read-out: cell viability (Con = 100)", "value": "95.4 ± 3.79", "unit": "%"}, {"measurement": "viability at 25 µM", "setting": "Huh-7; Homo sapiens, STG 25 μM, read-out: cell viability (Con = 100)", "value": "92.1 ± 1.35", "unit": "%"}, {"measurement": "cell viability inhibited", "setting": "Huh-7; sitagliptin 25 μM", "value": "no significant difference"}, {"measurement": "Tumor weight", "setting": "[2]; H22, sitagliptin experiment, STG 20 mg/kg, Con 1.48 ± 0.34", "value": "0.78 ± 0.31", "unit": "g"}, {"measurement": "inhibition of tumor growth (inhibition ratio)", "setting": "[2]", "value": 46.12, "unit": "%"}, {"measurement": "fat coefficient (epididymal fat pad)", "setting": "[3]; 6 weeks, model group 3.96±0.83%, normal group 1.58±0.68%", "value": "3.28±1.14", "unit": "%"}, {"measurement": "Lee's INDEX", "setting": "[3]; 6 weeks, model group 353.28±9.64, normal group 337.05±9.96", "value": "346.34±9.36"}, {"measurement": "body weight after 6 weeks", "setting": "[3]; agents in drinking water, FBP 300 mg/kg, STG 20 mg/kg, combination FBP 500 mg/kg+STG 20 mg/kg, model group 47.89±3.34", "value": "46.78 ± 6.1", "unit": "g"}, {"measurement": "cytotoxicity at 20 µM", "setting": "melanoma B16 cell", "value": 16, "unit": "%"}]}]}
